For one assay, the target named is T1, Trypsin (Bos taurus, UniProt P00760).
T1 sequence (P00760 24-246): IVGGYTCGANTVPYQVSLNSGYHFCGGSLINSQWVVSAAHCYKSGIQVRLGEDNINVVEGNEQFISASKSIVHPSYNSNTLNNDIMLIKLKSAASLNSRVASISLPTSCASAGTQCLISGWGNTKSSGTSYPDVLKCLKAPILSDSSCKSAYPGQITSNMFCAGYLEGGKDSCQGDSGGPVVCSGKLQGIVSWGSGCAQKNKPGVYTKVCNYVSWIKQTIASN
The assay can be described thus: Anti-trypsin activity (hydrolysis of TAME). It counts as biochemical. The settings on record: molar concentration inhibiting 50% of TAME hydrolysis; read-out: ID50 trypsin. As for the experimental part:
(§1) The anti-trypsin, anti-plasmin, anti-kallikrein and anti-thrombin activities were determined according to the method of Muramatsu et al. [M. Muramatus, T. Onishi, S. Makino, Y. Hayashi and S. Fujii, J. of Biochem., 58, 214 (1965)]. The data summarized in Table 1 are expressed in terms of molar concentration (ID50) of the test compound which inhibits 50% of the activity of each enzyme to hydrolyze TAME (tosylalginine methyl ester). The compound No. corresponds to the compound number shown in Examples.

For another assay, the target named is Plasmin (Homo sapiens, UniProt P00747). The assay can be described thus: Anti-plasmin activity (hydrolysis of TAME). To be noted: molar concentration inhibiting 50% of TAME hydrolysis; read-out: ID50 plasmin. It counts as biochemical. As to the method:
The anti-trypsin, anti-plasmin, anti-kallikrein and anti-thrombin activities were determined according to the method of Muramatsu et al. [M. Muramatus, T. Onishi, S. Makino, Y. Hayashi and S. Fujii, J. of Biochem., 58, 214 (1965)]. […] The compound No. corresponds to the compound number shown in Examples.

The test system of a further assay is Kallikrein. Kind of assay: Anti-kallikrein activity (hydrolysis of TAME). The class given is biochemical. To be noted: molar concentration inhibiting 50% of TAME hydrolysis; read-out: ID50 kallikrein. As for the experimental part: as §1
A further assay concerns the target Thrombin (Homo sapiens, UniProt P00734). The assay can be described thus: biochemical. To be noted: read-out: ID50 thrombin.
The target of another assay is T2, C1r (Homo sapiens, UniProt P00736).
T2 sequence (P00736 464-705 limits assumed): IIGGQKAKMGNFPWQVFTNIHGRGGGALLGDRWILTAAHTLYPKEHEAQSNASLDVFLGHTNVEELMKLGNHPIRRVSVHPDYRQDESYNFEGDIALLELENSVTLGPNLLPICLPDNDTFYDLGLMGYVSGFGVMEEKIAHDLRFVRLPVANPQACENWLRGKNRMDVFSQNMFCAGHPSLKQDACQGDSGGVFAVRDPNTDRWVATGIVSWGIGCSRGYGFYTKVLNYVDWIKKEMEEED
T2 sequence (P00736 18-463 partner limits assumed): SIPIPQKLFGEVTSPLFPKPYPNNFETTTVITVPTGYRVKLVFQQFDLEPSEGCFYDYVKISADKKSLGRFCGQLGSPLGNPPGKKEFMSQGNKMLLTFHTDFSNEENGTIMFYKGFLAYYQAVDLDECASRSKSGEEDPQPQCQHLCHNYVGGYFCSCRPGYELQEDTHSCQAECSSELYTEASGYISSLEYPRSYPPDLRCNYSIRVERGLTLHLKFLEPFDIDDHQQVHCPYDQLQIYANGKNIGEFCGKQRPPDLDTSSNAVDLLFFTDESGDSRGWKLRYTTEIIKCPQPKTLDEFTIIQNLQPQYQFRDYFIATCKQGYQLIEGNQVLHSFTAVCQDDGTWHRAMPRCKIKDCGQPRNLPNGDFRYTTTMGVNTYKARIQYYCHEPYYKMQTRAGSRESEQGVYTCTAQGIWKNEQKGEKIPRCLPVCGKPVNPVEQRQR
Kind of assay: biochemical. The settings on record: read-out: ID50 C1r (Anti-C1 activity).

For a further assay, the target named is T3, C1s (Homo sapiens, UniProt P09871).
T3 sequence (P09871 438-688 limits assumed): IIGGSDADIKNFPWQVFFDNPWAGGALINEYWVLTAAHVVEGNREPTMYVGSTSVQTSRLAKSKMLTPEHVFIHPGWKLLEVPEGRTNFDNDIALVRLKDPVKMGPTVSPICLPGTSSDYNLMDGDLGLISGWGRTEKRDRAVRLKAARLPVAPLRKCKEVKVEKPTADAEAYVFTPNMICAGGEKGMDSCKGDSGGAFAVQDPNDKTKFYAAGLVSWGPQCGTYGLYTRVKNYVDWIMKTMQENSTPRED
T3 sequence (P09871 16-437 partner limits assumed): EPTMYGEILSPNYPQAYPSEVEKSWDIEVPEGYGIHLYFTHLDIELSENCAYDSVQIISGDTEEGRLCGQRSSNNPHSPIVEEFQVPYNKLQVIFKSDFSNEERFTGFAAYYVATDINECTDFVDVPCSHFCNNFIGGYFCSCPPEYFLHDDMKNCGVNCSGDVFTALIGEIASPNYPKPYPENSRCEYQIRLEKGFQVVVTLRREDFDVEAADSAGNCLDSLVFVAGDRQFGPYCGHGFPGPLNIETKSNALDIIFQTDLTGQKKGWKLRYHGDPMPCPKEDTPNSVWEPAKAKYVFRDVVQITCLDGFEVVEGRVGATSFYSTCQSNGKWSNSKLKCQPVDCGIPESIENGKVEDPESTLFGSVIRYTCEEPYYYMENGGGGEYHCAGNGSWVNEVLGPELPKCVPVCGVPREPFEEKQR
The assay can be described thus: Anti-C1s activity (hydrolysis of ATEE). The class given is biochemical. To be noted: molar concentration inhibiting 50% of ATEE hydrolysis; read-out: ID50 C1s (Anti-C1 activity). As to the method: The anti-C1 esterase (C1r, C1s) activity was determined according to the method of Okamura et al. [K. Okamura, M. Muramatsu and B. Fujii, Biochem. Biophys. Acta, 295, 252-257 (1973)]. The inhibition of complement mediated hemolysis was determined according to the method of Baker et al. [B. R. Baker and E. H. Erickson, J. Med. Chem. 12, 408-414 (1969)]. The figures in Table 2 have the following meanings:
C1s: Molar concentration of the test compound which inhibits 50% of the ability of C1s to hydrolyse ATEE (acetyltyrosin ethyl ester) (ID50).

Another assay has as its system complement. The assay can be described thus: Inhibition of complement mediated hemolysis. It counts as cell-based. As for the experimental part:
The complement mediated hemolysis is widely used as a means to determine the titration of complement. The principle of this method is based on the fact that hemolysis is caused by the activation of complement, when the latter is added to a complex (immune complex) of erythrocytes and the antibody thereof. The degree of hemolysis varies in proportion to the amount of complement added. Therefore, when a known amount of complement admixed with a C1 esterase inhibitor is used, the hemolysis must be suppressed in proportion to the inhibitory activity.
The anti-C1 esterase (C1r, C1s) activity was determined according to the method of Okamura et al. [K. Okamura, M. Muramatsu and B. Fujii, Biochem. Biophys. […] The figures in Table 2 have the following meanings: […]

[1] abbreviates: molar concentration inhibiting 50% of TAME hydrolysis.
The mark [2] stands for this setting: molar concentration inhibiting 50% of AAME hydrolysis.

Where two headings read alike, the source gives them in different places.

Sequence of Plasmin (P00747 581-810 limits assumed, species assumed): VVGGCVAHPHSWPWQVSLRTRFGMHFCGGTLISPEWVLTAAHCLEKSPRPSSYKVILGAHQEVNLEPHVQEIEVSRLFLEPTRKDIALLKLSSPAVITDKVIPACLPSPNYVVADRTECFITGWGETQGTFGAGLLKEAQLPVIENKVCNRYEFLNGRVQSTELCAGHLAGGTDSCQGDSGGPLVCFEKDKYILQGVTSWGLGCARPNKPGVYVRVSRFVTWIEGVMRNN
Sequence of Plasmin (P00747 97-580 partner limits assumed, species assumed): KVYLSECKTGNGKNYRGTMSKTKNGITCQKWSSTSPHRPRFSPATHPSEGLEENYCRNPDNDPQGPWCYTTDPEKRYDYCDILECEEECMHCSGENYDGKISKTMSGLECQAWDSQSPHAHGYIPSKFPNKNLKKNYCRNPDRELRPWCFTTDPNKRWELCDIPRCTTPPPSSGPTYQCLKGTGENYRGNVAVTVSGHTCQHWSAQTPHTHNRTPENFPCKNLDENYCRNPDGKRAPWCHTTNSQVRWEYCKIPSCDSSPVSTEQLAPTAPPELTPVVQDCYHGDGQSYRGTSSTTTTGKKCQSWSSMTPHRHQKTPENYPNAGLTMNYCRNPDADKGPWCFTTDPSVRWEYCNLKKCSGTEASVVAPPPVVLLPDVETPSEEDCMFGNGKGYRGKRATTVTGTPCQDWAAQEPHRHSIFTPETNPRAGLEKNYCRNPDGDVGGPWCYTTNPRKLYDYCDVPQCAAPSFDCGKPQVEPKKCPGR

As for `N=C(N)c1ccc2cc(OC(=O)c3ccc(CNC4=NCCN4)o3)ccc2c1` [compound 11], the IC50 at Trypsin was 3000 nM; on Plasmin, 2000 nM; in the assay on Kallikrein, 400 nM; on Thrombin (setting [1]), 400 nM; at C1r (setting [2]), 500 nM; at C1s, 500 nM. For the same compound, the “Inhibition of complement mediated hemolysis (%)” value (shortened to “Inhibition … (%)”) in the assay with complement (1 × 10^-5) worked out at 100%; in the assay with complement (1 × 10^-6) it was 100%; in the assay on complement (1 × 10^-7), 43%.

As for `CN(C)CC(=O)NCc1ccc(C(=O)Oc2ccc3cc(C(=N)N)ccc3c2)o1` [compound 14], the IC50 came to 1000 nM on Trypsin; 2000 nM on Plasmin; 500 nM in the assay with Kallikrein; 700 nM at Thrombin (setting [1]); 700 nM on C1r (setting [2]); 300 nM at C1s. Further, the “Inhibition … (%)” value worked out at 100% in the assay on complement (1 × 10^-5), 100% with complement (1 × 10^-6) and 28% in the assay with complement (1 × 10^-7).

As to `N=C(N)Nc1ccc(C(=O)NCc2ccc(C(=O)Oc3ccc4cc(C(=N)N)ccc4c3)o2)cc1` [compound 15], the IC50 was 200 nM at Trypsin; 300 nM on Plasmin; 400 nM in the assay on Kallikrein; 600 nM at Thrombin (setting [1]); 300 nM on C1r; 400 nM at C1s. The figures for the “Inhibition … (%)” value in the assay on complement (1 × 10^-5), in the assay on complement (1 × 10^-6) and in the assay with complement (1 × 10^-7) were 100%, 100% and 99%, respectively.

As for `N=C(N)c1ccc2cc(OC(=O)c3ccc(CNC(=O)c4cccnc4)o3)ccc2c1` [compound 16], the IC50 came out at 1000 nM on Trypsin; 1000 nM at Plasmin; 400 nM in the assay with Kallikrein; 400 nM at Thrombin (setting [1]); 400 nM on C1r (setting [2]); 300 nM at C1s. Also, the “Inhibition … (%)” value in the assay on complement (1 × 10^-5) was 100%; in the assay on complement (1 × 10^-6), 100%; with complement (1 × 10^-7), 97%.

`N=C(N)c1ccc2cc(OC(=O)c3ccc(CNC(=O)c4cnc5ccccc5c4)o3)ccc2c1` [compound 17]: the IC50 at Trypsin is 800 nM; on Plasmin, 2000 nM; with Kallikrein, 1000 nM; on Thrombin (setting [1]), 700 nM; at C1r (setting [2]) it was 500 nM; on C1s, 2000 nM. The “Inhibition … (%)” value in the assay with complement (1 × 10^-5) is reported as 100%; in the assay with complement (1 × 10^-6), 100%; with complement (1 × 10^-7), 93%.

In the case of `N=C(N)c1ccc2cc(OC(=O)c3ccc(CNC(=O)CCOCc4ccccc4)o3)ccc2c1` [compound 18], the IC50 was determined as 900 nM on Trypsin; 500 nM at Plasmin; 500 nM in the assay on Kallikrein; 500 nM at Thrombin (setting [1]); 300 nM on C1r (setting [2]); 3000 nM at C1s. In addition, the entries for the “Inhibition … (%)” value in the assay on complement (1 × 10^-5), in the assay with complement (1 × 10^-6) and in the assay with complement (1 × 10^-7) were 100%, 100% and 97%, respectively.

In the case of `N=C(N)c1ccc2cc(OC(=O)c3ccc(CNC(=O)OCc4ccccc4)o3)ccc2c1` [compound 19], the IC50 on Trypsin was 200 nM; at Plasmin, 300 nM; with Kallikrein, 700 nM; at Thrombin (setting [1]), 200 nM; at C1r (setting [2]), 200 nM; on C1s it was 300 nM. Also, the “Inhibition … (%)” value with complement (1 × 10^-5) turned out to be 97%; with complement (1 × 10^-6), 97%; in the assay with complement (1 × 10^-7) it was 93%.

As to `CN(C)Cc1ccc(C(=O)Oc2ccc3cc(C(=N)N)ccc3c2)o1` [compound 23], the IC50 came to 500 nM on Trypsin; 2000 nM on Plasmin; 3000 nM in the assay on Kallikrein; 4000 nM at Thrombin (setting [1]); 3000 nM at C1r (setting [2]); 2000 nM at C1s. The results for the “Inhibition … (%)” value with complement (1 × 10^-5), in the assay with complement (1 × 10^-6) and with complement (1 × 10^-7) were 100%, 95% and 76%, respectively.

As for `N=C(N)c1ccc2cc(OC(=O)c3ccc(CN4CCOCC4)o3)ccc2c1` [compound 25], the IC50 was 700 nM at Trypsin; 600 nM at Plasmin; 2000 nM in the assay on Kallikrein; 3000 nM on Thrombin; 1000 nM on C1r (setting [2]); 2000 nM on C1s. Further, the “Inhibition … (%)” value with complement (1 × 10^-5) stood at 100%; in the assay with complement (1 × 10^-6), 98%; with complement (1 × 10^-7), 82%.

In the case of `N=C(N)c1ccc2cc(OC(=O)c3ccc(CN4CCN(Cc5ccccc5)CC4)o3)ccc2c1` [compound 26], the IC50 on Trypsin was found to be 300 nM; on Plasmin, 600 nM; in the assay on Kallikrein, 3000 nM; on Thrombin (setting [1]), 2000 nM; at C1r (setting [2]), 500 nM; on C1s, 4000 nM. The “Inhibition … (%)” value with complement (1 × 10^-5) is recorded as 100%; in the assay on complement (1 × 10^-6) it was 98%; with complement (1 × 10^-7), 93%.

The values are drawn from patent US4563527A, “Amidine compounds” (Torii & Co., Ltd., priority 1984, dated 1986).
